Measured values from patent US20100029622A1, “MICROEMULSIONS” (NEUROSCIENZE PHARMANESS S.C.A.R.L., priority 2008, published 2010).

Experiments:
[1] = biological target: T1, opioidergic receptors k (Mus musculus, UniProt P33534); assay: Radioreceptorial binding, receptors k (3H-U 69.593, brain membranes); design: species or system mice; conditions: 3H-U 69.593, 25° C.
T1 construct: the complete brain (excluding the cerebellum) was quickly dissected and kept in ice; from tissue; host or cells: CD1 mouse complete brain (excluding the cerebellum) homogenate/membranes
Source text: The affinity of the compounds synthesized in the preceding examples towards the opioidergic receptors μ, δ, k has been evaluated in vitro by radioreceptorial binding studies by using the method reported hereinunder.
The experimentation has been carried out according to the guide lines of the European Community for the animal experimentation (EEC n. 86/609), by using laboratory animals (male mices CD1 Charles River Italy, Calco, LC, Italy) lodged twenty in a cage, under standard stabulation conditions (temperature 22±2° C., relative humidity 60%, artificial light with a light/dark cycle of 12 hours). The food and water were at disposal ad libitum.
Receptors k: CD1 male mice weighing 20-25 g were used. The animals were sacrificed by cervical dislocation and the complete brain (excluding the cerebellum) was quickly dissected and kept in ice. The tissue was homogeneized in 40 volumes (w/v) of Tris-HCl buffer (50 mM, pH 7.4) by an Ultra-Turrax, then centrifuged for 20 minutes at 48,000×g in a centrifuge kept at 4° C. The resulting […] was suspended again in the same buffer and incubated at 37° C. for 30 minutes in a bath kept under oscillation. At the end of the incubation the suspension was centrifuged 48,000×g for 15 minutes and the pellets suspended again in 10 volumes of the Tris-HCl buffer. The binding experiment was carried out in a volume of 1 ml at the temperature of 25° C. with about 800-1000 μg of proteins for sample. The incubation was carried out for 60 minutes in the,presence of different concentrations of the ligand ^3H-U 69.593 (41.7 Ci/mmole). The non specific binding was determined in the presence of U69593 (10 μM). The incubation was stopped by quick filtering by means of a filtration instrument (Brandell®, Gaithersburg, Md., USA) by using GF/C filters (Whatman®).
The radioactivity was determined by a scintillator in liquid phase (Tricarb® 2100, Packard, Meridien, Ill., USA), by using three ml of scintillating fluid (Ultima Cold MV, Packard, Meridien, Ill., USA).
The protein determination was carried out by the Bradford method (1976) by using the protocol and the reactants supplied by Bio-Rad (Milano, Italy).
The affinity of the compounds towards the receptors μ, δ, κ has been expressed in Ki terms.

[2] = biological target: T2, opioidergic receptors δ (Mus musculus, UniProt P32300); assay: Radioreceptorial binding, receptors δ ([3H]-DPDPE displacement, brain membranes); design: species or system mice; conditions: 1 nM [3H]-DPDPE, 25° C.
T2 construct: from tissue; host or cells: CD1 mouse total brain (excluding the cerebellum) membranes

[3] = biological target: T3, opioidergic receptors μ (Mus musculus, UniProt P42866); assay: Radioreceptorial binding, receptors μ ([3H]-DAMGO displacement, brain membranes); design: species or system mice; conditions: 1 nM [3H]-DAMGO, 25° C.
T3 construct: from tissue; host or cells: CD1 mouse total brain (excluding the cerebellum) membranes
T3 sequence (P42866 whole entry): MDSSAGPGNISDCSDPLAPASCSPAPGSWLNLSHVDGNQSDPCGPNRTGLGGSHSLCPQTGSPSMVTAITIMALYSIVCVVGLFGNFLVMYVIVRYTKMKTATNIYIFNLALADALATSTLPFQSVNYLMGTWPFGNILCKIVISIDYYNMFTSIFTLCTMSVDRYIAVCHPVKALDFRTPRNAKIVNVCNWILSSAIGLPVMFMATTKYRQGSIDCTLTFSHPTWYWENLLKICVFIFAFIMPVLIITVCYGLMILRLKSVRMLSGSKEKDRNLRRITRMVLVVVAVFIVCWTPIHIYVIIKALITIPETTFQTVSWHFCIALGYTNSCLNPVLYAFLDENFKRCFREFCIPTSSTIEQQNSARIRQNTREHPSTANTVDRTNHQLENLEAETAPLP

T1 sequence (P33534 whole entry): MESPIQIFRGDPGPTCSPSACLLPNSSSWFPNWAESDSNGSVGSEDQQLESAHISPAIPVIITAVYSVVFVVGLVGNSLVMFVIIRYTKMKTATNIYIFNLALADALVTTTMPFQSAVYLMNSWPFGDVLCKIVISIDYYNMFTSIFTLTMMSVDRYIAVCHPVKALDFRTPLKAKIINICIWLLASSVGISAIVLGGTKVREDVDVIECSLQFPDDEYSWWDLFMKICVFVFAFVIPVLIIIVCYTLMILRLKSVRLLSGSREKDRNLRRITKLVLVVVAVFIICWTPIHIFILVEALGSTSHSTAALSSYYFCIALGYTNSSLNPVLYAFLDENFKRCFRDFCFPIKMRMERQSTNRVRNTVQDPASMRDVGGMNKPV
T2 sequence (P32300 whole entry): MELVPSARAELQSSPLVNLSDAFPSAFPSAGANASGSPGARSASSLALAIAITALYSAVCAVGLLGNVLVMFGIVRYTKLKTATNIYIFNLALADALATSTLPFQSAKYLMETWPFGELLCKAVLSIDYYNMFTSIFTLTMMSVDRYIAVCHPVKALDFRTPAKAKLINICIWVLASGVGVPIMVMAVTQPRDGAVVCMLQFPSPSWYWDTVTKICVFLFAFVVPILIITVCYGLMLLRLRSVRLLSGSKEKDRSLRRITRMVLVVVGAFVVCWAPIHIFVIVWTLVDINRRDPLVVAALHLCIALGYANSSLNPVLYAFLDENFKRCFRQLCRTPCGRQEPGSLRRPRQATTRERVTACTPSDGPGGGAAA

With `CCC(=O)N1CCC2CCCC(C1)N2C/C=C(\C)c1ccc(Cl)c(Cl)c1` (stereo not drawn) [I-Cb] as the compound, how does the Ki [1] read?
Its Ki is 425 ± 38 nM.

What about the melting point of the same compound?
The melting point was 184 to 185 °C.

What about the Ki [2] of the same compound?
The Ki was 1120 ± 216 nM.

What about the Ki [3] of the same compound?
The Ki was 4.25 ± 0.3 nM.

With `CCC(=O)N1C2CCCC1CN(CC=C(c1ccccc1)c1ccccc1)CC2` (stereo not drawn) [I-Dc] as the compound, how does the Ki [1] read?
The Ki was 1930 ± 233 nM.

What about the melting point of the same compound?
Its melting point is 169 to 170 °C.

And the Ki [2]?
Its Ki is 1690 ± 312 nM.

What about the Ki [3] of the same compound?
The Ki was 23.3 ± 1.6 nM.

What does the source list for `CCC(=O)N1CCC2CCCC(C1)N2CC=C(c1ccccc1)c1ccccc1` (stereo not drawn) [I-Cc]?
Ki [1]: 40 ± 0.1 nM; melting point: 137 to 139 °C; Ki [2]: 187 ± 29.7 nM; Ki [3]: 3.16 ± 0.6 nM

Which Ki [1] does the source give for `CCC(=O)N1CCC2CCC(C1)N2C/C=C(\C)c1ccccc1` (stereo not drawn) [I-Aa] here?
The Ki was 55 ± 25 nM.

What about the melting point of the same compound?
The melting point was 230 to 232 °C.

And the Ki [2]?
Its Ki is 425 ± 25 nM.

And the Ki [3]?
The Ki was 5.7 ± 1 nM.

What does the source list for `CCC(=O)N1C2CCC1CN(CC=C(c1ccccc1)c1ccccc1)CC2` (stereo not drawn) [I-Bd]?
Ki [1]: 1130 ± 186 nM; melting point: 184 to 186 °C; Ki [2]: 333 ± 5 nM; Ki [3]: 20.7 ± 2.33 nM

What does the source list for `CCC(=O)N1C2CCC1CN(C/C=C(\C)c1ccccc1)CC2` (stereo not drawn) [I-Ba]?
Ki [1]: 900 ± 100 nM; melting point: 228 to 230 °C; Ki [2]: 933 ± 33 nM; Ki [3]: 8.3 ± 1.2 nM

For `CCC(=O)N1CCC2CCC(C1)N2CC=C(c1ccccc1)c1ccccc1` (stereo not drawn) [I-Ad], which Ki [1] is on record?
Its Ki is 103 ± 7 nM.

And the melting point?
Its melting point is 176 to 177 °C.

And the Ki [2]?
The Ki was 142 ± 25 nM.

And the Ki [3]?
Its Ki is 10.7 ± 0.3 nM.

Which Ki [1] does the source give for `CCC(=O)N1CCC2CCC(C1)N2C/C=C(\C)c1ccc(Cl)c(Cl)c1` (stereo not drawn) [I-Ab] here?
The Ki was 100 ± 5 nM.

And the melting point?
The melting point was 188 to 189 °C.

And the Ki [2]?
Its Ki is 867 ± 44 nM.

And the Ki [3]?
Its Ki is 7 ± 1.5 nM.

For `CCC(=O)N1C2CCCC1CN(C/C=C(\C)c1ccc(Cl)c(Cl)c1)CC2` (stereo not drawn) [I-Db], which Ki [1] is on record?
Its Ki is 1170 ± 120 nM.

What about the melting point of the same compound?
The melting point was 175 to 176 °C.

And the Ki [2]?
The Ki was 3250 ± 166 nM.

What about the Ki [3] of the same compound?
The Ki was 17.5 ± 1.4 nM.

For `CCC(=O)N1C2CCCC1CN(C/C=C(\C)c1ccccc1)CC2` (stereo not drawn) [I-Da], which Ki [1] is on record?
The Ki was 1470 ± 317 nM.

And the melting point?
Its melting point is 144 to 146 °C.

What about the Ki [2] of the same compound?
The Ki was 3870 ± 125 nM.

And the Ki [3]?
Its Ki is 40 ± 2.8 nM.

Which Ki [1] does the source give for `CCC(=O)N1C2CCC1CN(C/C=C(\C)c1ccc(Cl)c(Cl)c1)CC2` (stereo not drawn) [I-Bb] here?
The Ki was 393 ± 23 nM.

And the melting point?
Its melting point is 186 to 188 °C.

What about the Ki [2] of the same compound?
The Ki was 850 ± 58 nM.

And the Ki [3]?
The Ki was 4.1 ± 0.35 nM.

Which results are given for `CCC(=O)N1CCC2CCCC(C1)N2C/C=C(\C)c1ccccc1` (stereo not drawn) [I-Ca]?
Ki [1]: 410 ± 10 nM; melting point: 106 to 108 °C; Ki [2]: 1670 ± 166 nM; Ki [3]: 17 ± 1.3 nM
